Read-outs that look alike come from different tables or passages of the source.
Tests used:
human urokinase (μUK) = target: T1, human urokinase (μUK) (Homo sapiens, UniProt P00749, C299A/N322Q); assay: Urokinase inhibition constants by S-2444 chromogenic activity; assay type: biochemical
T1 construct: μUK (UK amino acids Ile^159-Lys^404 that contain Ala^279Gln^302); made in house; host or cells: baculovirus-infected High-Five insect cells or Pichia pastoris GS115 (secreted)
Experimental: Assays were completed at both pH 6.5 (0.1 M NaPO4) and 7.4 (50 mM Tris).

μUK = μUK (Homo sapiens, UniProt P00749, C299A/N322Q); details: for binding at the urokinase active site seen in Fo-Fc electron density map: crystal soaked in mixture of 6 to 7 compounds, 3.3 to 5.2 mM each, compound 31 soaked individually
[1] = Oral bioavailability in the rat; details: in vivo, 10 mg/kg dose
VanX = VanX (Enterococcus faecium, UniProt Q06241); assay: CrystaLEAD crystallographic screening of VanX crystals; details: crystals soaked in mixtures of 7-10 compounds
ErmC′ = target: T2, ErmC′ (Bacillus subtilis, UniProt P13956); assay: CrystaLEAD crystallographic screening of ErmC′ crystals; assay type: binding; details: adenosine library, mixtures of 8-9 compounds
T2 construct: made in house; host or cells: E. coli BL21(DE3)/pLysS with pTERM31 (pET24+ derivative)
Description: The adenosine library consisted of 59 compounds. The library was divided into 7 mixtures of 8-9 shape-diverse compounds and screened by the CrystaLEAD™ method. […] Equal volumes of each compound were mixed to assemble the mixture of […].
Typical usable data were 80-90% complete at 3.4-3.6 Å resolution with merging R-factors of 7-16%.

[2] = pH 6.5 (0.1 M NaPO4), S-2444 substrate, read-out: Ki (pH 6.5)
[3] = pH 7.4 (50 mM Tris), S-2444 substrate, read-out: Ki (pH 7.4)

VanX, sequence (Q06241 whole entry): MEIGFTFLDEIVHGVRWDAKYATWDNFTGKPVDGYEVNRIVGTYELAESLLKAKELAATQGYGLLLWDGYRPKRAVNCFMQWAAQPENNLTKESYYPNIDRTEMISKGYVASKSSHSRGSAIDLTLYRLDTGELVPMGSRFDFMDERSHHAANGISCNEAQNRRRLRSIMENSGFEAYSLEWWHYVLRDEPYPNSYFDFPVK
T2 sequence (P13956 whole entry): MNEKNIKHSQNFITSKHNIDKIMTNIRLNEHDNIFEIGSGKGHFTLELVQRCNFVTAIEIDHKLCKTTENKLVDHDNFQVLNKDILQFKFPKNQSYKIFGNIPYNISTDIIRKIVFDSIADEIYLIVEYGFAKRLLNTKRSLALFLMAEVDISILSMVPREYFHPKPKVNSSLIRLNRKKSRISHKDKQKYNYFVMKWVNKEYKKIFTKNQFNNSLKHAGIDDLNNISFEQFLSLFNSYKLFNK

With `Cc1nc(N)ccc1Br` [Compound 5] the Ki (human urokinase (μUK); [2]) was over 500 µM, the Ki (human urokinase (μUK); [3]) was over 500 µM and the “binding at the urokinase active site seen in Fo-Fc electron density map” value (“binding … in Fo-Fc electron density map” for short) (μUK) was “binder”. The pKa (pKa of CrystaLEAD hits) was 6.

For `Nc1ccc2cccc(O)c2n1` [Compound 19, 2-amino-8-hydroxyquinoline], the Ki (human urokinase (μUK); Ki (pH 7.4), pH 7.4 (50 mM Tris), S-2444 substrate) was 137 µM, the Ki (human urokinase (μUK); Ki at pH 6.5, pH 6.5, restated in Example 3) was 56 µM and the “binding … in Fo-Fc electron density map” value (μUK) was “bound”. The “binding at the urokinase active site seen in electron density map, 100 compound mixture” value (μUK; mixture of 100 compounds spiked with compound 19 at 180 μM, 1% DMSO, 4 hours 15 minutes soak) was “positive hit” and the pKa (pKa of CrystaLEAD hits) was 7.3.

For `Nc1ccc2c(c1)CC=N2` [Compound 22, 5-aminoindole], the Ki (human urokinase (μUK); [2]) was 200 µM, the Ki (human urokinase (μUK); [3]) was over 500 µM and the “binding … in Fo-Fc electron density map” value (μUK) was “found to bind”. The pKa (pKa of CrystaLEAD hits) was 6.

For `Cc1ccc(N)nc1` [Compound 31], the Ki (human urokinase (μUK); Ki (pH 6.5)) was over 500 µM, the Ki (human urokinase (μUK); Ki (pH 7.4)) was over 500 µM and the “binding … in Fo-Fc electron density map” value (μUK) was “found to bind”. The pKa (pKa of CrystaLEAD hits) was 7.

In the case of `Nc1ccc2cccc(Nc3ncccn3)c2n1` [Compound 35, 8-aminopyrimidinyl-2-aminoquinoline], the bioavailability [1] is reported as 30 to 40%.

For `O=C(O)C1CCCC1` [Compound 36], the “binding at the VanX active site seen in electron density map” value (shortened to “binding at the VanX active site seen”) (VanX) was “bound”.

For `O=C(O)CCC1CCCC1` [Compound 37], the “binding at the VanX active site seen” value (VanX) was “found to bind”.

For `O=C(O)C(=O)CS` [Compound 39], the “binding at the VanX active site seen” value (VanX) was “bound”.

For `N[C@@H](CS)C(=O)O` [Compound 41], the “binding at the VanX active site seen” value (VanX) was “binding”.

In the case of `OCC1OC(n2cnc3c(NCc4ccccc4)ncnc32)C(O)C1O` (stereo not drawn) [Compound 44], the “binding to ErmC′ seen in electron density map” value (ErmC′) is reported as “hits”.

In the case of `OCC1OC(n2cnc3c(NC4CCCCC4)ncnc32)C(O)C1O` (stereo not drawn) [Compound 45], the “binding to ErmC′ seen in electron density map” value (ErmC′) is reported as “hits”.

— patent US20040219607A1, “Ligand screening and design by X-ray crystallography” (priority 1998, published 2004)
